The text below walks through data of ChEMBL document CHEMBL1136291, “Synthesis of C-8 methanesulphonate substituted pyrrolobenzodiazepines as potential antitumour agents” (2003).

For one test, the system named is SNB-75. Description: In vitro antitumor activity against human CNS SNB-75 cell line. Format: functional.
The subject of the next test is SR. In words: In vitro antitumor activity against human leukemia SR cell line. Format: functional.
Another test has as its system CCRF-CEM. In words: In vitro antitumor activity against human leukemia CCRF-CEM cell line. The test is classed as functional.
In the next test the test system is OVCAR-4. Description: In vitro antitumor activity against human ovarian OVCAR-4 cell line. Format: functional.
The test system of the next test is NCI-H23. Description: In vitro antitumor activity against human non-small cell lung NCI-H23 cell line.
A further test concerns CAKI-1. Description: In vitro antitumor activity against human renal CAKI-1 cell line. The test is classed as functional.
In another test the test system is SK-MEL-5. Description: In vitro antitumor activity against human melanoma SK-MEL-5 cell line. Format: functional.
A further test has as its system NCI/ADR-RES. In words: In vitro antitumor activity against human breast NCI/ADR-RES cell line. Format: functional.
In another test the test system is U-251. In words: In vitro antitumor activity against human CNS U251 cell line. The test is classed as functional.
For a further test, the system named is UO-31. Description: In vitro antitumor activity against human renal UO-31 cell line. The test is classed as functional.
For a further test, the system named is Malme-3M. Description: In vitro antitumor activity against human melanoma MALME-3M cell line. Format: functional.
A further test deals with MDA-MB-231. In words: In vitro antitumor activity against human breast MDA-MB-231/ATCC cell line. Format: functional.
A further test deals with SW-620. In words: In vitro antitumor activity against human Colon SW-620 cell line. Format: functional.
The next test relates to UACC-257. In words: In vitro antitumor activity against human melanoma UACC-257 cell line. Format: functional.
For a further test, the system named is LOX IMVI. In words: In vitro antitumor activity against human melanoma […] cell line. The test is classed as functional.
In another test the test system is SF-539. In words: In vitro antitumor activity against human CNS SF-539 cell line. Format: functional.
Another test deals with RPMI-8226. Description: In vitro antitumor activity against human leukemia RPMI-8226 cell line. The test is classed as functional.
A further test deals with M14. Description: In vitro antitumor activity against human melanoma M14 cell line. Format: functional.
The next test relates to A498. In words: In vitro antitumor activity against human renal A498 cell line. Format: functional.
For another test, the system named is TK-10. Description: In vitro antitumor activity against human renal TK-10 cell line. The test is classed as functional.
In a further test the test system is 786-0. Description: In vitro antitumor activity against human renal 786-0 cell line. The test is classed as functional.
The subject of the next test is UACC-62. In words: In vitro antitumor activity against human melanoma UACC-62 cell line. The test is classed as functional.
A further test relates to HCT-116. Description: In vitro antitumor activity against human Colon HCT116 cell line. The test is classed as functional.
The next test deals with ACHN. In words: In vitro antitumor activity against human renal ACHN cell line. The test is classed as functional.
The next test has as its system OVCAR-3. Description: In vitro antitumor activity against human ovarian OVCAR-3 cell line. The test is classed as functional.
A further test relates to NCI-H226. Description: In vitro antitumor activity against human non-small cell lung NCI-H226 cell line. Format: functional.
The test system of a further test is HCT-15. Description: In vitro antitumor activity against human Colon HCT-15 cell line. Format: functional.
A further test deals with NCI-H522. Description: In vitro antitumor activity against human non-small cell lung NCI-H522 cell line. Format: functional.

Take `COc1cc2c(cc1OCCCOS(C)(=O)=O)N=C[C@@H]1CCCN1C2=O`: the GI50 was 94.7 µM in the test on SNB-75, 62.9 µM in the test with SR, 52.8 µM in the test with CCRF-CEM and 70.3 µM in the test on OVCAR-4.
On to `COc1cc2c(cc1OCCOS(C)(=O)=O)N=C[C@@H]1CCCN1C2=O`, for which the GI50 in the test with NCI-H23 was 12.2 µM; with CAKI-1 it was 17.7 µM; with SK-MEL-5, 16.9 µM; in the test with NCI/ADR-RES, 13.5 µM; in the test with U-251, 17.1 µM; with UO-31, 15.2 µM. The GI50 in the test on Malme-3M amounted to 13.6 µM; in the test with MDA-MB-231, 16.5 µM; in the test with SW-620, 14.6 µM; with UACC-257, 18.2 µM; in the test with LOX IMVI it was 15.7 µM; in the test on SF-539 it was 18.6 µM. The GI50 with RPMI-8226 was 12.2 µM; with M14, 18.7 µM; with A498 it was 17.1 µM; in the test with TK-10, 18.1 µM; in the test on 786-0, 17 µM; with UACC-62 it was 19.4 µM. Moreover, the GI50 in the test with SR amounted to 11.1 µM; in the test with CCRF-CEM it was 14.5 µM; in the test with HCT-116, 18.5 µM; with ACHN it was 16 µM; in the test with OVCAR-3 it was 16.3 µM; with NCI-H226, 15.4 µM. For the same compound, the GI50 was 16.5 µM in the test on HCT-15 and 10.9 µM in the test with NCI-H522.

The GI50 is the concentration giving 50% growth inhibition. The low end stands for more potent growth inhibition, the high end for less potent growth inhibition.
